Source: ChEMBL document CHEMBL6153150, “Design, Synthesis, and Biological Evaluation of Chiral-Proline Derivatives as Novel HSP90 Inhibitors” (ACS Med Chem Lett, 2025)

Key:
Heat shock protein HSP90 = Heat shock protein HSP90 (Homo sapiens, UniProt P07900+P08238); experiment: Binding affinity to Hsp90 (unknown origin) assessed as dissociation constant incubated for 30 mins by fluorescence spectrophotometric analysis; assay type: protein assay
HCT-116 = experiment: Antiproliferative activity against human HCT-116 cells assessed as cell viability inhibition rate incubated for 72 hr by MTT assay; assay type: functional, cell-based; conditions: HCT-116, 72 h
A549 = experiment: Antiproliferative activity against human A549 cells assessed as cell viability inhibition rate incubated for 72 hr by MTT assay; assay type: functional, cell-based; conditions: A549, 72 h
MCF7 = experiment: Antiproliferative activity against human MCF7 cells assessed as cell viability inhibition rate incubated for 72 hr by MTT assay; assay type: functional, cell-based; conditions: MCF7, 72 h
SK-BR-3 = experiment: Antiproliferative activity against human SK-BR-3 cells assessed as cell viability inhibition rate incubated for 72 hr by MTT assay; assay type: functional, cell-based; conditions: SK-BR-3, 72 h
K562 = experiment: Antiproliferative activity against human K562 cells assessed as cell viability inhibition rate incubated for 72 hr by MTT assay; assay type: functional, cell-based; conditions: K562, 72 h

Compound	Kd (Heat shock protein HSP90) [nM]	IC50 (HCT-116) [nM]	IC50 (A549) [nM]	IC50 (MCF7) [nM]	IC50 (SK-BR-3) [nM]	IC50 (K562) [nM]
CC(C)c1cc(C(=O)N2C[C@@H](c3ccccc3)C[C@@H]2C(=O)N2CCC(N3CCCCC3)CC2)c(O)cc1O	983	–	–	–	–	–
CC(C)OCCCNC(=O)[C@H]1C[C@H](c2ccccc2)CN1C(=O)c1cc(C(C)C)c(O)cc1O	202	–	–	–	–	–
CCNC(=O)[C@H]1C[C@H](c2ccccc2)CN1C(=O)c1cc(C(C)C)c(O)cc1O	1132	–	–	–	–	–
CC(C)c1cc(C(=O)N2C[C@@H](c3ccccc3)C[C@@H]2C(=O)NC2CCCC2)c(O)cc1O	876	–	–	–	–	–
COc1ccc(CNC(=O)[C@H]2C[C@H](c3ccccc3)CN2C(=O)c2cc(C(C)C)c(O)cc2O)cc1	147	473	103	107	732	541
COCCN1CCN(C(=O)[C@H]2C[C@H](c3ccccc3)CN2C(=O)c2cc(C(C)C)c(O)cc2O)CC1	637	–	–	–	–	–
COc1ccc(C(C)NC(=O)[C@H]2C[C@H](c3ccccc3)CN2C(=O)c2cc(C(C)C)c(O)cc2O)cc1 (some centres undefined)	463	652	172	170	721	533
CC(C)c1cc(C(=O)N2C[C@@H](c3ccccc3)C[C@@H]2C(=O)N2CCC(OCC3CC3)CC2)c(O)cc1O	1632	–	–	–	–	–
CCCN1CCN(C(=O)[C@H]2C[C@H](c3ccccc3)CN2C(=O)c2cc(C(C)C)c(O)cc2O)CC1	1033	–	–	–	–	–
O=C(NCc1ccccc1F)[C@H]1C[C@H](c2ccccc2)CN1C(=O)c1cc(C2CC2)c(O)cc1O	168	291	29	86	312	411
CC(C)c1cc(C(=O)N2C[C@@H](c3ccccc3)C[C@@H]2C(=O)N2CCCCC2)c(O)cc1O	1337	–	–	–	–	–
CCN(C(=O)[C@H]1C[C@H](c2ccccc2)CN1C(=O)c1cc(C(C)C)c(O)cc1O)C(C)C	2479	–	–	–	–	–
CC(C)c1cc(C(=O)N2C[C@@H](c3ccccc3)C[C@@H]2C(=O)NCc2ccccc2)c(O)cc1O	87	303	39	61	267	471
O=C(NCc1ccccn1)[C@H]1C[C@H](c2ccccc2)CN1C(=O)c1cc(C2CC2)c(O)cc1O	57	263	67	47	351	876
CCCCNC(=O)[C@H]1C[C@H](c2ccccc2)CN1C(=O)c1cc(C(C)C)c(O)cc1O	1873	–	–	–	–	–
COCCN(CCOC)C(=O)[C@H]1C[C@H](c2ccccc2)CN1C(=O)c1cc(C(C)C)c(O)cc1O	783	731	301	375	877	703
CC(C)c1cc(C(=O)N2C[C@@H](c3ccccc3)C[C@@H]2C(=O)N2CCN(CC3CC3)CC2)c(O)cc1O	862	–	–	–	–	–
CC(C)c1cc(C(=O)N2C[C@@H](c3ccccc3)C[C@@H]2C(=O)NCC2CC2)c(O)cc1O	354	–	–	–	–	–
CC(C)c1cc(C(=O)N2C[C@@H](c3ccccc3)C[C@@H]2C(=O)NCc2ccccc2F)c(O)cc1O	231	376	71	87	462	631
CC(C)c1cc(C(=O)N2C[C@@H](c3ccccc3)C[C@@H]2C(=O)N(C)C2CC2)c(O)cc1O	1871	–	–	–	–	–
CCCN(CCC)C(=O)[C@H]1C[C@H](c2ccccc2)CN1C(=O)c1cc(C(C)C)c(O)cc1O	2516	–	–	–	–	–
CCC1CCCCN1C(=O)[C@H]1C[C@H](c2ccccc2)CN1C(=O)c1cc(C(C)C)c(O)cc1O (some centres undefined)	1677	–	–	–	–	–
CC1CCCN(C(=O)[C@H]2C[C@H](c3ccccc3)CN2C(=O)c2cc(C(C)C)c(O)cc2O)C1 (some centres undefined)	2162	–	–	–	–	–
CC(C)CN(C)C(=O)[C@H]1C[C@H](c2ccccc2)CN1C(=O)c1cc(C(C)C)c(O)cc1O	1573	–	–	–	–	–
CC(C)c1cc(C(=O)N2C[C@@H](c3ccccc3)C[C@@H]2C(=O)NC2CC2)c(O)cc1O	1213	–	–	–	–	–
CC(C)c1cc(C(=O)N2C[C@@H](c3ccccc3)C[C@@H]2C(=O)N2CCN(Cc3ccccc3)CC2)c(O)cc1O	1033	–	–	–	–	–
CCCCCNC(=O)[C@H]1C[C@H](c2ccccc2)CN1C(=O)c1cc(C(C)C)c(O)cc1O	2161	–	–	–	–	–
O=C(c1ccc(O)cc1)N1Cc2ccccc2C1	4300	–	–	–	–	–
CCOCCNC(=O)[C@H]1C[C@H](c2ccccc2)CN1C(=O)c1cc(C(C)C)c(O)cc1O	124	–	–	–	–	–
